Consider six compounds from ChEMBL document CHEMBL1126460, “The use of synthetic phosphopeptides for epitope mapping of the s1-casein phosphopeptide segment 5979” (Bioorg Med Chem Lett, 1992).

The test can be described thus: Peptide was evaluated for inhibition in competitive ELISA at a concentration of 1 mM using casein phosphopeptide alpha s1-casein (59-79) as the adsorbed antigen. (In general: ELISA stands for enzyme-linked immunosorbent assay.)
For the compound `CC[C@H](C)[C@H](NC(=O)[C@H](COP(=O)(Oc1ccccc1)Oc1ccccc1)NC(=O)[C@H](CCC(=O)O)NC(C)=O)C(=O)N[C@@H](COP(=O)(Oc1ccccc1)Oc1ccccc1)C(=O)N[C@@H](COP(=O)(Oc1ccccc1)Oc1ccccc1)C(=O)N[C@@H](COP(=O)(Oc1ccccc1)Oc1ccccc1)C(=O)N[C@@H](CCC(=O)O)C(=O)NC(CCC(=O)O)C(=O)NC` (stereo partly specified), the inhibition (in general, the relative decrease from the control value, in per cent) was found to be 20%.
Regarding `CC[C@H](C)[C@H](N)C(=O)N[C@H](C(=O)N1CCC[C@@H]1C(=O)N[C@@H](CC(N)=O)C(=O)N[C@@H](CO)C(=O)N[C@H](C(=O)N[C@@H](CCC(=O)O)C(=O)N[C@@H](CCC(=O)O)C(=O)NC)C(C)C)C(C)C`, the inhibition stood at 12%.
`CC[C@H](C)[C@H](N)C(=O)N[C@H](C(=O)N1CCC[C@@H]1C(=O)N[C@@H](CC(N)=O)C(=O)N[C@@H](COP(=O)(Oc1ccccc1)Oc1ccccc1)C(=O)N[C@H](C(=O)N[C@@H](CCC(=O)O)C(=O)N[C@@H](CCC(=O)O)C(=O)NC)C(C)C)C(C)C`: the inhibition was 60.3%.
Compound `CC[C@H](C)[C@H](NC(=O)[C@H](CCC(=O)O)NC(=O)[C@@H](N)CCC(=O)O)C(=O)N[C@H](C(=O)N1CCC[C@@H]1C(=O)N[C@@H](CC(N)=O)C(=O)O)C(C)C` showed an inhibition of 10.8%.
Then `CC[C@H](C)[C@H](NC(=O)[C@H](COP(=O)(Oc1ccccc1)Oc1ccccc1)NC(=O)[C@H](CCC(=O)O)NC(=O)[C@H](C)NC(=O)[C@@H](N)CCC(=O)O)C(=O)NC`, with 10.9%; and H-QMEAE-OH, with 10%.
